Laboratory results taken from patent US12139473B2, “Substituted-N-heteroaryl compounds and uses thereof” (Bionomics Limited, priority 2019, dated 2024).

Target: T1, hKv3.1 (Homo sapiens, UniProt P48547)
T1 construct: expressed in transfected cells
T1 sequence (P48547 1-511): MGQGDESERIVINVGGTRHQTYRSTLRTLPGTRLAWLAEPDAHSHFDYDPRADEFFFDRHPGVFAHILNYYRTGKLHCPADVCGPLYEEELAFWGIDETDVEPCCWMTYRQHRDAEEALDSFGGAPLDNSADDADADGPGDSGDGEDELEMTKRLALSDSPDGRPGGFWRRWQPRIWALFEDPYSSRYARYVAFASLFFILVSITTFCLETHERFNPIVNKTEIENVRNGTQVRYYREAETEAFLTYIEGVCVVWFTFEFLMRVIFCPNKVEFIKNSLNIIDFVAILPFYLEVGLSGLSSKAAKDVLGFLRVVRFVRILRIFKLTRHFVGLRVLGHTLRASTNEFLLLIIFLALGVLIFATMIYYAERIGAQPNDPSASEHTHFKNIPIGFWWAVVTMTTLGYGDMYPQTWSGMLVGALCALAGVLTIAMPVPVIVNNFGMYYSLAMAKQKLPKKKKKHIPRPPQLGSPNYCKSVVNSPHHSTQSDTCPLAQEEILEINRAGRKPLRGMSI
Test: Automated patch clamp electrophysiology (Patchliner), CHO/Kv3.1 cells
Format: cell-based
Conditions: 10 μM compound, hKv3.1 in CHO-K1, whole-cell; for Kv3.1 Activity at 10 μM Potentiation (%): peak current at voltage step of −10 mV vs vehicle (0.33% DMSO); for Kv3.1 Activity at 10 μM Voltage Shift (mV): voltage shift of the IV curve at V1/2
Experimental: hKv3.1, hKv3.2, hKv3.3, and hKv3.4 were stably expressed in CHO-K1 (Chinese hamster ovary) cells and kept under constant antibiotic selection. For in vitro assays, cells were maintained in appropriate growth medium at 37° C. and 5% CO2 in a humidified incubator.
hKv3.X expressing cells were plated in T-25 flasks for 3-4 days at 37° C. (no selection antibiotic) prior to use and grown to 80% confluence. Cells were washed twice with PBS (calcium and magnesium free) and detached with a 5-minute treatment at 37° C. with 2-3 mls of Accutase®. Cells were collected, and flask was washed in CHO-SFM II media (Life Technologies Gibco), centrifuged for 2 minutes at ˜110×g and resuspended to obtain a single cell suspension of ˜2-3×10^6 cells/ml.
The intracellular solution contained the following (in mM): KCl 50, NaCl 10, KF 60, EGTA 20, HEPES 10, adjusted to pH 7.2 with KOH and an osmolarity of 285 mOsmol. Seal enhancer was purchased from Nanion (80 mM NaCl, 3 mM KCl, 10 mM MgCl2, 35 mM CaCl2), 10 mM HEPES, pH7.4, 298 mOsmol. The external solution contained (in mM): NaCl 140, KCl 4, CaCl2) 2, MgCl2 1, HEPES 10, Glucose 5, adjusted to pH7.4 and an osmolarity of 298 mOsmol.
All compounds were initially tested at 10 uM at a final DMSO concentration of 0.33%. Compounds were dissolved in dimethylsulfoxide (DMSO) at a stock concentration of 30 mM. The compound was further diluted 1:10 to give a stock concentration of 3 mM in DMSO. The final assay solution was diluted 1:300 in External solution to give a final concentration of 10 uM. For the DMSO Control Buffer 30 uL of DMSO was added to 10 mL buffer.
All electrophysiological recordings were performed at ambient temperature (21-23° C.) using automated patch clamp (Patchliner, Nanion Technologies GmbH) in the whole-cell configuration.
Cell membrane potentials were held at −80 mV, and currents were evoked by voltage steps (1000 ms duration) from −60 to +60 mV in 10 mV increments. This was performed first with vehicle (0.33% DMSO) and then with 10 uM compound, after a 3-minute incubation period. Data was taken from 4 cells per assay.
The recordings were analysed and selected using peak current amplitude (>100 pA at the −10 mV voltage step) in the absence of compound to eliminate unsuitable cells from analysis. Peak current amplitude was measured and recorded for each voltage step and data was normalised to the maximum current at +60 mV. The normalised Kv3.x currents following addition of the compound were then compared with the currents recorded prior to compound addition (vehicle control). Positive modulation was determined as % potentiation at the voltage step of −10 mV=[current (cmpd)/current (veh)]*100−100. % potentiation≥50% was considered acceptable. In addition, voltage shift of the IV curve at V1/2 was measured. V1/2 of ≥−5 mV was also considered acceptable. IV curves were plotted in GraphPad Prism (software version 6.0) and fitted with a Boltzmann equation, where V1/2 is the voltage at half-maximal activation.

Row | Compound | Kv3.1 Activity at 10 μM Potentiation (%) | Kv3.1 Activity at 10 μM Voltage Shift (mV)
1 | Cc1ccc(Oc2cc(N3C(=O)NC(C)(C)C3=O)ncn2)cc1OCC1CC1 [Example 37, 3-[6-[3-(cyclopropylmethoxy)-4-methyl-phenoxy]pyrimidin-4-yl]-5,5-dimethyl-imidazolidine-2,4-dione] | 16% | −1.0 mV
2 | COc1ccc(Oc2cc(N3C(=O)NC(C)(C)C3=O)ncn2)cc1C [Example 20, 3-[6-(3-methyl-4-methoxy-phenoxy)pyrimidin-4-yl]-5,5-dimethyl-imidazolidine-2,4-dione] | 37% | −3.3 mV
3 | CC[C@H]1NC(=O)N(c2cc(Oc3ccc(C)c(OC)c3)ncn2)C1=O [Example 55, (5R)-5-ethyl-3-[6-(3-methoxy-4-methyl-phenoxy)pyrimidin-4-yl]imidazolidine-2,4-dione] | 16% | −3.9 mV
4 | CC[C@H]1NC(=O)N(c2ccnc(Oc3ccc(C)c(OC)c3)n2)C1=O [Example 59, (5R)-5-ethyl-3-[2-(3-methoxy-4-methyl-phenoxy)pyrimidin-4-yl]imidazolidine-2,4-dione] | 22% | −1.1 mV
5 | COc1c(C)cccc1Oc1cc(N2C(=O)NC(C)(C)C2=O)ncn1 [Example 19, 3-[6-(2-methoxy-3-methyl-phenoxy)pyrimidin-4-yl]-5,5-dimethyl-imidazolidine-2,4-dione] | 15% | −1.7 mV
6 | COc1c(C)cc(Oc2cc(N3C(=O)NC(C)(C)C3=O)ncn2)cc1C [Example 35, 3-[6-(4-methoxy-3,5-dimethyl-phenoxy)pyrimidin-4-yl]-5,5-dimethyl-imidazolidine-2,4-dione] | −10% | −0.4 mV
7 | CC1(C)NC(=O)N(c2cc(Oc3ccc4c(c3)CCC4)ncn2)C1=O [Example 31, 3-(6-indan-5-yloxypyrimidin-4-yl)-5,5-dimethyl-imidazolidine-2,4-dione] | 65% | −3.3 mV
8 | Cc1ccc(Oc2cc(N3C(=O)NC(C)(C)C3=O)ncn2)cc1OC(F)(F)F [Example 44, 3-[6-[4-methyl-3-(trifluoromethoxy)phenoxy]pyrimidin-4-yl]-5,5-dimethyl-imidazolidine-2,4-dione] | 33% | −2.9 mV
9 | COc1ccc(Oc2cc(N3C(=O)NC(C)(C)C3=O)ncn2)cc1 [Example 11, 3-[6-(4-methoxyphenoxy)pyrimidin-4-yl]-5,5-dimethyl-imidazolidine-2,4-dione] | 8% | −1.3 mV
10 | Cc1ccc(Oc2cc(N3C(=O)NC(C)(C)C3=O)ncn2)cc1 [Example 28, 3-[6-(4-methylphenoxy)pyrimidin-4-yl]-5,5-dimethyl-imidazolidine-2,4-dione] | 3% | −1.1 mV
11 | COc1cc(C)ccc1Oc1cc(N2C(=O)NC(C)(C)C2=O)ncn1 [Example 21, 3-[6-(2-methoxy-4-methyl-phenoxy)pyrimidin-4-yl]-5,5-dimethyl-imidazolidine-2,4-dione] | 29% | −1.4 mV
12 | Cc1ccc(Oc2cc(N3C(=O)NC(C)(C)C3=O)ncn2)cc1OCC(C)C [Example 39, 3-[6-(3-isobutoxy-4-methyl-phenoxy)pyrimidin-4-yl]-5,5-dimethyl-imidazolidine-2,4-dione] | 13% | −2.1 mV
13 | CC1(C)NC(=O)N(c2cc(Oc3ccc4c(c3)OC(F)(F)O4)ncn2)C1=O [Example 45, 3-[6-[(2,2-difluoro-1,3-benzodioxol-5-yl)oxy]pyrimidin-4-yl]-5,5-dimethyl-imidazolidine-2,4-dione] | 19% | −1.7 mV
14 | COc1cncc(Oc2cc(N3C(=O)NC(C)(C)C3=O)ncn2)c1 [Example 25, 5,5-dimethyl-3-[6-[(5-methoxy-3-pyridyl)oxy]pyrimidin-4-yl]imidazolidine-2,4-dione] | 6% | −0.1 mV
15 | CC[C@@]1(C)NC(=O)N(c2nccc(Oc3ccc(C)c(OC)c3)n2)C1=O [Example 48, (5R)-5-ethyl-3-[4-(3-methoxy-4-methyl-phenoxy)pyrimidin-2-yl]-5-methyl-imidazolidine-2,4-dione] | 32% | −2.1 mV
16 | CC[C@@]1(C)NC(=O)N(c2ccnc(Oc3ccc(C)c(OC)c3)n2)C1=O [Example 62, (5R)-5-ethyl-3-[2-(3-methoxy-4-methyl-phenoxy)pyrimidin-4-yl]-5-methyl-imidazolidine-2,4-dione] | 20% | −3.1 mV
17 | COc1cc(Oc2cc(N3C(=O)NC(C)(C)C3=O)ncn2)ccc1C(F)(F)F [Example 42, 3-[6-[3-methoxy-4-(trifluoromethyl)phenoxy]pyrimidin-4-yl]-5,5-dimethyl-imidazolidine-2,4-dione] | 11% | +2.0 mV
18 | COc1cc(C)cc(Oc2cc(N3C(=O)NC(C)(C)C3=O)ncn2)c1 [Example 17, 3-[6-(3-methyl-5-methoxy-phenoxy)pyrimidin-4-yl]-5,5-dimethyl-imidazolidine-2,4-dione] | 7% | −0.2 mV
19 | CC[C@]1(C)NC(=O)N(c2cc(Oc3ccc(C)c(OC)c3)ncn2)C1=O [Example 3, (5S)-5-ethyl-3-[6-(3-methoxy-4-methyl-phenoxy)pyrimidin-4-yl]-5-methyl-imidazolidine-2,4-dione] | 34% | −2.1 mV
20 | CC[C@@]1(C)NC(=O)N(c2cc(Oc3ccc(C)c(OC)c3)ncn2)C1=O [Example 2, (5R)-5-ethyl-3-[6-(3-methoxy-4-methyl-phenoxy)pyrimidin-4-yl]-5-methyl-imidazolidine-2,4-dione] | 16% | −1.9 mV
21 | COc1cc(Oc2nccc(N3C(=O)NC(C)(C)C3=O)n2)ccc1F [Example 64, 3-[2-(3-methoxy-4-fluoro-phenoxy)pyrimidin-4-yl]-5,5-dimethyl-imidazolidine-2,4-dione] | 34% | −1.8 mV
